Experimental data as given in US10898535B2, “Composition for inhibiting and preventing myopathy, containing bean leaf extract as active ingredient” (AMOREPACIFIC CORPORATION, priority 2015, dated 2021).

Legend:
Atrogin1 gene (mRNA) = assay: Inhibition of expression of Atrogin1 gene (mRNA) in dexamethasone-induced muscle loss model (PCR); type: cell-based, mouse; conditions: differentiated C2C12, dexamethasone 1 μM, dexibuprofen 100 μM, 6 hours, control group = dexamethasone only
Experimental: (§1) In the present Experimental Example 2, experiments were conducted to evaluate the inhibitory efficacy of the bean leaf extract against the overexpression of Atrogin1 and Murf1 mRNA in the muscle loss induced model by dexamethasone. The experimental group, the control group and the comparison group of Experimental Example 2 were prepared in the same manner as Experimental Example 1. Provided that, when 6 hours had elapsed since the treatment with each final material, RNA was extracted with trizol reagent (TRIzol agent, Invitrogen) after washing twice with cold saline, […] Expression patterns of each gene were measured using primers and probes (Applied biosystems) previously designed for genes of the synthesized cDNA and Atrogin1, Murf1, and GAPD. At this time, polymerase chain reaction (PCR) and analysis were performed using a Rotor-Gene 3000 system (Corbett Research, Sydney, Australia). To increase the reliability, each sample was repeatedly measured three times to derive the average value.

Murf1 gene (mRNA) = assay: Inhibition of expression of Murf1 gene (mRNA) in dexamethasone-induced muscle loss model (PCR); type: cell-based, mouse; conditions: differentiated C2C12, dexamethasone 1 μM, dexibuprofen 100 μM, 6 hours, control group = dexamethasone only
Experimental: as §1

C2C12 (mouse myoblast) = assay: Ability to recover cell activity of myocyte in dexamethasone-induced muscle loss model (CCK8, absorbance 450 nm); type: cell-based; conditions: differentiated C2C12, dexamethasone 1 μM, dexibuprofen 100 μM, 24 hours, control group = dexamethasone only
Experimental: In the present Experimental Example 1, the experiments were conducted to evaluate the recovery efficacy of the bean leaf extract on the decrease in cell activity of myocyte in a model of muscle loss induced by Dexamethasone. Dexamethasone is a kind of glucocorticoid, and increases expression of the Atrogin1 and Murf1 in vitro and in vivo to accelerate proteolytic degradation, thereby resulting in decrease in skeletal muscle, induction of myocyte death, and reduction of cell activity. Accordingly, an experimental model of dexamethasone to myocyte is a useful model for evaluating the function of sarcopenia and is widely used. The C2C12 (mouse myoblast) used in Experimental Example 1 was purchased from American Type Culture Collection (Manassas, Va., USA) and the cells were cultured in DMEM containing 10% FBS, 100 units/mL Penicillin, and […] streptomycin. Specific experimental methods are as follows. […] After 24 hours of treatment with the material, the medium was replaced with medium containing 10% solution of CCK8 […], and allowed to react for 10 minutes, and the cell activity was measured by measuring the absorbance at 450 nm. To increase the reliability, each sample was repeatedly measured three times to derive the average value.

CC(C)Cc1ccc([C@H](C)C(=O)O)cc1 [Dexibuprofen, dexibuprofen]
Change in Atrogin1 gene expression relative to control group (%) (Atrogin1 gene (mRNA)): −2.6%
Change in Atrogin1 gene expression relative to control group (%) (Atrogin1 gene (mRNA); listed as dexibuprofen): insignificant
Change in Murf1 gene expression relative to control group (%) (Murf1 gene (mRNA)): −3.3%
Change in Murf1 gene expression relative to control group (%) (Murf1 gene (mRNA); listed as dexibuprofen): insignificant
Change in cell activity relative to control group (%) (C2C12 (mouse myoblast)): −4.1%
Change in cell activity relative to control group (%) (C2C12 (mouse myoblast); listed as dexibuprofen): no recovery of myocyte activity is observed
